# Source: the supplement of paper PMC11208160
# Assay: recombinant UMI read abundance after kanamycin selection (control-corrected) (log10(CPM+1)); higher = more efficient recombination; extreme values may be limits of the assay; sequences stand for … in AGTGCAGAGAAAATCGGCCAGTTTTCTCTGCCTGCAGTCCGCATGCCGTGGGACCCCTTGGGTTCTAACCTGTTGCCTAGATTTATGCAGCGGACTGCCTTTCTCCCAAAGTGATAAACCGG…AGGTTGGTTTCACT; site = the 11-nt donor
# Experimental: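 Pooled E. coli donor-specificity screen for the IS621 bridge recombinase. Each library member carries a reprogrammed 11-nt donor and a full-length LE bridge RNA expressed in cis from the natural promoter, with a paired donor-binding loop (8-nt LDG + 4-nt RDG) and a target-binding loop fixed to T5. It is co-electroporated with a T5 target plasmid; recombinase is induced with 0.07 mM IPTG and recombinants are selected on kanamycin. UMIs are counted as CPM, averaged over two biological replicates and corrected by the unselected control. Molecule = full bridge RNA written as DNA, built from the T5 scaffold: LDG = donor specificity nt 1-8, RDG = reverse complement of nt 8-11.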
# 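Note: IS621 bridge recombinase in Escherichia coli cells against a fixed T5 target plasmid.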
row,Sequence,recombinant UMI read abundance (log10)
1,AAAAGGCCATGGACCGGTTTTCCCGGTAATCCGTATTTGAC (site AAAAGGCCTGT),1.38
2,AAAAGGCCATGGACCGGTTTTCCCGGTAATCCGTATTTGAC (site ACAAGGCCTGT),0
3,AAAAGGCCATGGACCGGTTTTCCCGGTAATCCGTATTTGAC (site AGAAGGCCTGT),0
4,AAAAGGCCATGGACCGGTTTTCCCGGTAATCCGTATTTGAC (site ATAAGGCCTGT),0
5,AAAAGTACATGGACCGGTTTTCCCGGTAATCCGTATTTGAT (site AAAAGTACTAT),1.62
6,AAAATACCATGGACCGGTTTTCCCGGTAATCCGTATTTGAC (site AAAATACCTGT),0
7,AAACAGACATGGACCGGTTTTCCCGGTAATCCGTATTTGAC (site AAACAGACTGT),2.57
8,AAACAGTCATGGACCGGTTTTCCCGGTAATCCGTATTTGCT (site AAACAGTCTAG),2.98
9,AAACATGCATGGACCGGTTTTCCCGGTAATCCGTATTTGAA (site AAACATGCTTT),2.15
10,AAACGCACATGGACCGGTTTTCCCGGTAATCCGTATTTGTG (site AAACGCACTCA),0.245
11,AAACGGACATGGACCGGTTTTCCCGGTAATCCGTATTTGTA (site AAACGGACTTA),1.84
12,AAACTAACATGGACCGGTTTTCCCGGTAATCCGTATTTGCA (site AAACTAACTTG),2.27
13,AAACTAACATGGACCGGTTTTCCCGGTAATCCGTATTTGCG (site AAACTAACTCG),2.09
14,AAAGAATCATGGACCGGTTTTCCCGGTAATCCGTATTTGCA (site AAAGAATCTTG),2.66
15,AAAGAATCATGGACCGGTTTTCCCGGTAATCCGTATTTGCA (site ACAGTATCTTG),0.902
16,AAAGATACATGGACCGGTTTTCCCGGTAATCCGTATTTGTT (site AAAGATACTAA),2.21

row,Sequence,recombinant UMI read abundance (log10)
1,AAAGATTCATGGACCGGTTTTCCCGGTAATCCGTATTTGTT (site AAAGATTCTAA),2.82
2,AAAGATTCATGGACCGGTTTTCCCGGTAATCCGTATTTGTT (site CAAGATTCTAA),2.12
3,AAAGATTCATGGACCGGTTTTCCCGGTAATCCGTATTTGTT (site GAAGATTCTAA),0.233
4,AAAGATTCATGGACCGGTTTTCCCGGTAATCCGTATTTGTT (site TAAGATTCTAA),2.48
5,AAAGTATCATGGACCGGTTTTCCCGGTAATCCGTATTTGGA (site AAAGTATCTTC),2.45
6,AAAGTATCATGGACCGGTTTTCCCGGTAATCCGTATTTGGA (site ACAGTATCTTG),0
7,AAATAGGCATGGACCGGTTTTCCCGGTAATCCGTATTTGCC (site AAATAGGCTGG),1.07
8,AAATATACATGGACCGGTTTTCCCGGTAATCCGTATTTGAC (site AAATATACTGT),2.52
9,AACAACCCATGGACCGGTTTTCCCGGTAATCCGTATTTGAA (site AACAACCCTTT),0.192
10,AACAAGTCATGGACCGGTTTTCCCGGTAATCCGTATTTGAC (site AACAAGTCTGT),1.86
11,AACAATACATGGACCGGTTTTCCCGGTAATCCGTATTTGTC (site AACAATACTGA),1.64
12,AACAGTGCATGGACCGGTTTTCCCGGTAATCCGTATTTGTC (site AACAGTGCTGA),2.39
13,AACCATCCATGGACCGGTTTTCCCGGTAATCCGTATTTGAT (site AACCATCCTAT),0.499
14,AACCATCCATGGACCGGTTTTCCCGGTAATCCGTATTTGAT (site AACCCTCCTAT),0.0146
15,AACCATCCATGGACCGGTTTTCCCGGTAATCCGTATTTGAT (site AACCGTCCTAT),0.00892
16,AACCATCCATGGACCGGTTTTCCCGGTAATCCGTATTTGAT (site AACCTTCCTAT),0.431
